Reference: US20110142842A1, “POLYPEPTIDES” (Medinnova AS, priority 2007, published 2011)

Columns and labels:
HLA-A*0201 [1] = target: HLA-A*0201 (Homo sapiens, UniProt P04439, /I218V/L300P/L318F/N151K/N90K/P208A/P217A/Q86G/Q94H/R138H/R169H/T345S); assay: REVEAL MHC molecule binding assay (ProImmune); conditions: value of the unmodified old peptide listed beside the modified peptide ID
HLA-A*0201 [2] = target: HLA-A*0201 (Homo sapiens, UniProt P04439, D140Y/D185E/D98H/E176V/E277Q/G131W/G231S/I119V/I121R/I166T/I218V/L300P/L318F/N151K/N90K/P208A/P217A/Q86G/Q94H/R138H/R169H/T345S); assay: REVEAL MHC molecule binding assay (ProImmune); conditions: level of binding relative to pass/fail control binder designated 100%
[3] = tested on: autologous responder cells (monocyte-depleted PBMC) from HLA-A*0201-negative donors; assay: Induction of pentamer positive CD8+ T cells by peptide-pulsed HLA-A*0201-transfected moDC (Example 8); format: cell-based, human
Method: MoDC transfected with HLA-A*0201 mRNA were harvested 18 hours after transfection and resuspended in 1-2 ml of serum-free DC-medium containing 50 μg/ml peptide, such as MART-1 or peptide #19. The cells were incubated at 37° C., 5% CO2 for 4 hours, then washed once in serum-free RPMI.
Stimulator and responder cells were seeded at a stimulator to responder (S:R) ratio of 1:10, with 3.0×10^6 responders per well in serum-free DC medium containing 10 ng/ml IL-7 (PeproTech EC Ltd.), 50 pg/ml IL-12 (PeproTech EC Ltd.), and PPD at 1 μg/ml.
On day 12 the responder cells were harvested and analyzed for the presence of pentamer positive cells. The cells were either sorted or restimulated.
Restimulation was done with autologous EBV-LCL transfected with HLA-A*0201 mRNA 12-24 hours prior to stimulation, harvested and resuspended in 1-2 ml of serum-free X-Vivo 20 (Cambrex) containing the same peptide as added on day 0 at 20 μg/ml, and incubated for 4 hours at 37° C., 5% CO2. Following incubation, the EBV-LCL were washed once in serum-free RPMI.
From day 12 of co-culture with stimulator cells, the responders were harvested, counted and analyzed for the presence of pentamer positive cells weekly. The responder cells were either restimulated, as described above, or the pentamer positive cells were sorted and expanded as described below.
Monocyte-derived dendritic cells (moDC) from HLA-A*0201-negative donors were transfected with HLA-A*0201 mRNA after maturation. 18-24 hours post-transfection the cells were pulsed with the peptides indicated in Table 2 for four hours, before co-culturing them with autologous responder cells (monocyte-depleted PBMC). On day 12 and day 19 and in some cases at day 26 of co-culture, the cells were harvested, stained with relevant peptide-MHC-pentamer and analyzed by flow cytometry. The percentage of pentamer positive cells was calculated by dividing the number of pentamer positive cells by the number of CD8+ cells. On day 12 and day 19, the cells were restimulated with autologous EBV-cells that were transfected with HLA-A*0201 mRNA and loaded for four hours with the relevant peptides indicated in Table 2.

SVDPRIANV [82] (homo sapiens) [Peptide 82, from MPO]
% Pass/fail (Old Peptide) (HLA-A*0201 [1]): 295.4%
% Pass/fail control (HLA-A*0201 [2]): 295.4%
Day 12 % pent+/CD8+ ([3]; day 12 of co-culture): 0.04%
Day 19 % pent+/CD8+ ([3]; day 19 of co-culture, after restimulation): 0.19%
Day 12 Donors ([3]; donors with positive response / donors tested, day 12): 1/2
Day 19 Donors ([3]; donors with positive response / donors tested, day 19): 1/2
